Details: in vivo
Procedure: This single center, open label, fixed sequence trial consisted of two stages. Stage 1 was single oral administration of ZX-7101A tablets to the subjects under fasting condition, while Stage 2 included coadministration of ZX-7101A tablets and itraconazole capsules. Participants took ZX-7101A tablets 40 mg orally under fasting condition in the morning on D1 of Stage 1 and D31 of Stage 2. In drug-drug interaction clinical trials, the selected dose of the precipitant drug should maximize the potential to identify drug-drug interaction in the context of safety (i.e., achieving an exposure level close to the highest clinically recommended dose). […] The PK of itraconazole is influenced by its formulation, food intake, and gastrointestinal pH ([Liu et al., 2016]; [Allen et al., 2015]). […] Therefore, in this study, itraconazole was administered orally after meals to achieve maximum clinical exposure. Therefore, from D26 to D50 of Stage 2, the participants took 200 mg itraconazole capsules once daily for 25 consecutive days within 30 min after eating a standard breakfast (coadministration with ZX-7101A at the same time in the morning of D31 under fasting condition). […]
The safety of subjects was assessed in terms of adverse events (AEs) and serious adverse events (SAEs) after administration based on the findings of physical examination, vital signs, ECG, and laboratory tests.

SMILES: CCC(C)n1ncn(-c2ccc(N3CCN(c4ccc(OCC5COC(Cn6cncn6)(c6ccc(Cl)cc6Cl)O5)cc4)CC3)cc2)c1=O (centres unmarked) [Itraconazole, itraconazole]
- TEAE: COVID-19 (human): 0 n (%)
- drug-related TEAE: None of the subjects developed any drug-related TEAE

From paper PMC12756401, “Effect of itraconazole on pharmacokinetics of ZX-7101A tablets in healthy Chinese subjects” (Frontiers in Pharmacology, 2025)
